Data reported in PubChem BioAssay AID2060618 (Molecular Pharmacology Branch, DTP, NCI, 2025).

Tested on: 454973-116-R2-J3-PDC spheroids, percent test/control viability
Assay: Anticancer human tumor 454973-116-R2-J3-PDC patient-derived pancreatic carcinoma cell line growth inhibition [CLK]
Conditions: spheroids with HUVEC and MSC; for IC50: curve of first compound; for viability, T/C: stronger effect = lower value; active means viability on the fitted dose curve at most 10% of control; inactive means the rest
How it was run: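 Multi-cell-type spheroids combined patient-derived tumor cells with HUVEC endothelial cells and human mesenchymal stem cells. Paired agents were dosed in half-log steps down from about clinical Cmax, or from 10 microM where Cmax was unknown.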
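Further: spheroids exposed to compounds for 7 days before readout.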

COc1ccc([C@@H](O)c2cc(-c3ncnc4cc(N5CCOCC5)ccc34)c(F)cc2Cl)nn1 + CNC(=O)c1ccc(Nc2nc(OC3CCCC3)c3c(-c4ccc5nc(C)oc5c4)c[nH]c3n2)c(OC)c1
inactive: viability, T/C (second compound 0.0316 µM, first compound 0.0316 µM) 109% | viability, T/C (second compound 0.0316 µM, first compound 0.1 µM) 95.5% | viability, T/C (second compound 0.0316 µM, first compound 0.316 µM) 105% | viability, T/C (second compound 0.0316 µM, first compound 1 µM) 93% | viability, T/C (second compound 0.0316 µM, first compound 3.16 µM) 80.3% | viability, T/C (second compound 0.0316 µM, first compound 10 µM) 51.1% | viability, T/C (second compound 0.1 µM, first compound 0.0316 µM) 98.9% | viability, T/C (second compound 0.1 µM, first compound 0.1 µM) 110% | viability, T/C (second compound 0.1 µM, first compound 0.316 µM) 94.5% | viability, T/C (second compound 0.1 µM, first compound 1 µM) 97.2% | viability, T/C (second compound 0.1 µM, first compound 3.16 µM) 72.9% | viability, T/C (second compound 0.1 µM, first compound 10 µM) 54.7% | viability, T/C (second compound 0.316 µM, first compound 0.0316 µM) 42.2% | viability, T/C (second compound 0.316 µM, first compound 0.1 µM) 41.4% | viability, T/C (second compound 0.316 µM, first compound 0.316 µM) 49.1% | viability, T/C (second compound 0.316 µM, first compound 1 µM) 43.2% | viability, T/C (second compound 0.316 µM, first compound 3.16 µM) 45.5% | viability, T/C (second compound 0.316 µM, first compound 10 µM) 31.9% | viability, T/C (second compound 1 µM, first compound 0.0316 µM) 27.8% | viability, T/C (second compound 1 µM, first compound 0.1 µM) 28% | viability, T/C (second compound 1 µM, first compound 0.316 µM) 29.1% | viability, T/C (second compound 1 µM, first compound 1 µM) 24.9% | viability, T/C (second compound 1 µM, first compound 3.16 µM) 25.9% | viability, T/C (second compound 1 µM, first compound 10 µM) 21.4% | viability, T/C (second compound 3.16 µM, first compound 0.0316 µM) 26.8% | viability, T/C (second compound 3.16 µM, first compound 0.1 µM) 30.3% | viability, T/C (second compound 3.16 µM, first compound 0.316 µM) 26.3% | viability, T/C (second compound 3.16 µM, first compound 1 µM) 25.9% | viability, T/C (second compound 3.16 µM, first compound 3.16 µM) 23.6% | viability, T/C (second compound 3.16 µM, first compound 10 µM) 18.4% | viability, T/C (second compound 10 µM, first compound 0.0316 µM) 28.2% | viability, T/C (second compound 10 µM, first compound 0.1 µM) 26.5% | viability, T/C (second compound 10 µM, first compound 0.316 µM) 23.1% | viability, T/C (second compound 10 µM, first compound 1 µM) 24.4% | viability, T/C (second compound 10 µM, first compound 3.16 µM) 27.2% | viability, T/C (second compound 10 µM, first compound 10 µM) 17.7%
> 10 µM: IC50 (second compound 0.0316 µM) | IC50 (second compound 0.1 µM)
< 0.0316 µM: IC50 (second compound 0.316 µM) | IC50 (second compound 1 µM) | IC50 (second compound 3.16 µM) | IC50 (second compound 10 µM)
